This passage reports IC50 and Activity results from ChEMBL document CHEMBL3576762, “Ribifolin, an orbitide from Jatropha ribifolia, and its potential antimalarial activity” (J Nat Prod, 2015).

Where a SMILES comes first, the peptide text is derived from it.

One data set deals with Plasmodium falciparum. Briefly: Antimalarial activity against chloroquine-sensitive Plasmodium falciparum 3D7 infected in erythrocytes by Giemsa-stained blood smears under microscopy. It is filed as functional, organism-based.
The test system of the next data set is HEK-293T. Briefly: Cytotoxicity against human HEK293T cells at 0.001 to 100 uM after 48 hrs by MTT assay. It is filed as cell-based.

Consider `CC[C@H](C)[C@@H]1NC(=O)[C@H](C)NC(=O)[C@H](CC(C)C)NC(=O)[C@H]([C@@H](C)CC)NC(=O)[C@@H]2CCCN2C(=O)[C@H]([C@@H](C)CC)NC(=O)CNC(=O)[C@H](CCSC)NC1=O` (cyclo(AIMGIPIL)), for which, in the data set on Plasmodium falciparum, inhibition was half-maximal at 9 µM (IC50).

For the compound `C[C@@H](O)[C@@H]1NC(=O)CNC(=O)[C@H](Cc2ccccc2)NC(=O)[C@H](Cc2ccccc2)NC(=O)CNC(=O)[C@H](Cc2ccccc2)NC(=O)[C@H](Cc2ccccc2)NC1=O` (cyclo(FFGFFGT)), in the data set with Plasmodium falciparum, 2 µM corresponded to half-maximal inhibition (IC50). Turning to `CC[C@H](C)[C@@H]1NC(=O)[C@H]([C@@H](C)O)NC(=O)CNC(=O)[C@H](Cc2ccccc2)NC(=O)[C@H](C(C)C)NC(=O)CNC(=O)[C@H](CC(C)C)NC1=O` (cyclo(FGTILGV)), the IC50 (in general, the concentration at which inhibition is half-maximal) in the data set with Plasmodium falciparum was found to be 16 µM.

Regarding `CC[C@H](C)[C@@H]1NC(=O)CNC(=O)[C@H](CC(C)C)NC(=O)[C@H]([C@@H](C)CC)NC(=O)[C@H]([C@@H](C)CC)NC(=O)[C@H](CO)NC(=O)CNC(=O)[C@H](CC(C)C)NC1=O` (cyclo(GILGSIIL)), in the data set on Plasmodium falciparum, the IC50 came to 42 µM. Further, the Activity entry in the data set with HEK-293T is listed as “Non-toxic”. `CC[C@H](C)[C@@H]1NC(=O)CNC(=O)[C@H](CC(C)C)NC(=O)[C@H](CC(C)C)NC(=O)[C@H]([C@@H](C)CC)NC(=O)[C@@H]2CCCN2C(=O)[C@H](CO)NC(=O)CNC(=O)[C@H](CC(C)C)NC1=O` (cyclo(GILGSPILL)) came in with an IC50 with Plasmodium falciparum of 10000 µM. For the compound H-ILGSIILG-OH, inhibition in the data set with Plasmodium falciparum was half-maximal at 519 µM (IC50). Moreover, the Activity result with HEK-293T is given as “Non-toxic”.
